Where a SMILES comes first, the peptide text is derived from it. [ ]: non-standard residue; d: D form. pGlu = O=C1CC[CH](C(=O)O)N1
Tested on: STZ-induced hyperglycemic rats
Experiment: Effect on STZ-induced hyperglycemia in rats (blood glucose level)
Assay type: in vivo, rat
Protocol: Male Sprague-Dawley rats (S.D. 180 g) were used in the experiments described below. The animals lived in individual metabolism cages with free access to food and water, while food and body weight were monitored daily. Peripheral blood samples (approximately 10 μl) were obtained from the tail vein of the animals. The blood glucose levels were measured by using Accu-Check Blood Glucose Meter (Roche Diagnosetics Corporation, IN). Beta cell function was evaluated once every two days over a 2-week period by an individual unaware of the treatment group. Animals were evaluated separately for blood glucose level, food intake and body weight. The endpoint check was pancreatic insulin content and pancreatic beta cell number.
Streptozotocin (STZ) was used to chemically induce damage in pancreatic function in order to create a hyperglycemic state in the animals. Eight-week old male Sprague-Dawley rats (200.00 g±10 g) were injected with STZ by intraperitoneal (i.p.) (65 mg/kg body weight (BW)) to create hyperglycemic animals (24 to 48 hours). Blood glucose levels were monitored daily. Onset of hyperglycemia occurred usually about 24 to 48 hours after STZ administration.
[…] the seventh day or on the third day after STZ administration, which allowed for examination of the TRH/TRH analog treatment and the degree of pancreatic damage in the diabetic animal. Again, food intake, body weight and blood glucose levels of each of the animals were monitored. When hyperglycemia was determined to be reversed by TRH/TRH analog, the animal was sacrificed. Blood samples were collected for insulin assay and the pancreas and muscles were collected for further pathological and physiological tests.
The figures shown in the tables are blood glucose levels (mg/dL; i.e., milligrams of glucose per deciliter of blood).

**Q.** With `NC(=O)CNC(=O)C1CCCN1C(=O)C(Cc1c[nH]cn1)NC(=O)C1CCC(=O)N1` (stereo not drawn) [Glp, Glp-His-Pro-Gly-NH2] ([pGlu]HPG-NH2; configuration not given here) as the molecule, how does the blood glucose level (Table 1, rats, STZ + compound i.p., Day 1) read?
**A.** 103.8 mg/dL

**Q.** And the blood glucose level (Table 1, rats, STZ + compound i.p., Day 2)?
**A.** 396 mg/dL

**Q.** What about the blood glucose level (Table 1, rats, STZ + compound i.p., Day 4) of the same molecule?
**A.** 446 mg/dL

**Q.** What about the blood glucose level (Table 1, rats, STZ + compound i.p., Day 9) of the same molecule?
**A.** 275 mg/dL

**Q.** And the blood glucose level (Table 1, rats, STZ + compound i.p., Day 15)?
**A.** 348 mg/dL

**Q.** And the blood glucose level (Table 1, rats, STZ + compound i.p., Day 22)?
**A.** 419 mg/dL

**Q.** And the blood glucose level (Table 1, rats, STZ + compound i.p., Day 29)?
**A.** 431 mg/dL

**Q.** And the blood glucose level (Table 1, rats, STZ + compound i.p., Day 39)?
**A.** 448 mg/dL

**Q.** What about the blood glucose level (Table 1, rats, STZ + compound i.p., Day 43) of the same molecule?
**A.** 423 mg/dL

**Q.** What about the blood glucose level (Table 1, rats, STZ + compound i.p., Day 50) of the same molecule?
**A.** 416 mg/dL

**Q.** And the blood glucose level (Table 1, rats, STZ + compound i.p., Day 53)?
**A.** 432 mg/dL

**Q.** And the blood glucose level (Table 1, rats, STZ + compound i.p., Day 56)?
**A.** 400 mg/dL

**Q.** And the blood glucose level (Table 1, rats, STZ + compound i.p., Day 60)?
**A.** 468 mg/dL

**Q.** What about the blood glucose level (Table 1, rats, STZ + compound i.p., Day 64) of the same molecule?
**A.** 421 mg/dL

**Q.** Which results are given for `NC(=O)C1CCCN1C(=O)C(Cc1c[nH]cn1)NC(=O)C(N)CCC(=O)O` (stereo not drawn) [GluT, 4-Amino-4-[2-(2-carbamoyl-pyrrolidin-1-yl)-1-(1H-imidazol-4-ylmethyl)-2-oxo-ethylcarbamoyl]-butyric acid]?
**A.** blood glucose level (Tables 2-3, rats, STZ + compound 5 µg/kg, Day 1): 94 mg/dL; blood glucose level (Tables 2-3, rats, STZ + compound 5 µg/kg, Day 4): 98 mg/dL; blood glucose level (Tables 2-3, rats, STZ + compound 5 µg/kg, Day 7): 466 mg/dL; blood glucose level (Tables 2-3, rats, STZ + compound 5 µg/kg, Day 11): 457 mg/dL; blood glucose level (Tables 2-3, rats, STZ + compound 5 µg/kg, Day 15): 186 mg/dL; blood glucose level (Tables 2-3, rats, STZ + compound 5 µg/kg, Day 18): 215 mg/dL; blood glucose level (Tables 2-3, rats, STZ + compound 5 µg/kg, Day 21): 213 mg/dL; blood glucose level (Tables 2-3, rats, STZ + compound 5 µg/kg, Day 25): 173 mg/dL; blood glucose level (Tables 2-3, rats, STZ + compound 5 µg/kg, Day 28): 369 mg/dL; blood glucose level (Tables 2-3, rats, STZ + compound 5 µg/kg, Day 32): 342 mg/dL; blood glucose level (Tables 2-3, rats, STZ + compound 5 µg/kg, Day 35): 336 mg/dL; blood glucose level (Tables 2-3, rats, STZ + compound 5 µg/kg, Day 39): 376 mg/dL; blood glucose level (Tables 2-3, rats, STZ + compound 5 µg/kg, Day 42): 390 mg/dL; blood glucose level (Tables 2-3, rats, STZ + compound 5 µg/kg, Day 46): 317 mg/dL; blood glucose level (Tables 2-3, rats, STZ + compound 5 µg/kg, Day 54): 260 mg/dL; blood glucose level (Tables 2-3, rats, STZ + compound 5 µg/kg, Day 61): 324 mg/dL; blood glucose level (Tables 2-3, rats, STZ + compound 10 µg/kg, Day 1): 103 mg/dL; blood glucose level (Tables 2-3, rats, STZ + compound 10 µg/kg, Day 4): 99 mg/dL; blood glucose level (Tables 2-3, rats, STZ + compound 10 µg/kg, Day 7): 415 mg/dL; blood glucose level (Tables 2-3, rats, STZ + compound 10 µg/kg, Day 11): 477 mg/dL; blood glucose level (Tables 2-3, rats, STZ + compound 10 µg/kg, Day 15): 117 mg/dL; blood glucose level (Tables 2-3, rats, STZ + compound 10 µg/kg, Day 18): 125 mg/dL; blood glucose level (Tables 2-3, rats, STZ + compound 10 µg/kg, Day 21): 103 mg/dL; blood glucose level (Tables 2-3, rats, STZ + compound 10 µg/kg, Day 25): 102 mg/dL; blood glucose level (Tables 2-3, rats, STZ + compound 10 µg/kg, Day 28): 429 mg/dL; blood glucose level (Tables 2-3, rats, STZ + compound 10 µg/kg, Day 32): 111 mg/dL; blood glucose level (Tables 2-3, rats, STZ + compound 10 µg/kg, Day 35): 128 mg/dL; blood glucose level (Tables 2-3, rats, STZ + compound 10 µg/kg, Day 39): 252 mg/dL; blood glucose level (Tables 2-3, rats, STZ + compound 10 µg/kg, Day 42): 224 mg/dL; blood glucose level (Tables 2-3, rats, STZ + compound 10 µg/kg, Day 46): 289 mg/dL; blood glucose level (Tables 2-3, rats, STZ + compound 10 µg/kg, Day 54): 255 mg/dL; blood glucose level (Tables 2-3, rats, STZ + compound 10 µg/kg, Day 61): 218 mg/dL; blood glucose level (Tables 2-3, rats, STZ + compound 20 µg/kg, Day 1): 103 mg/dL; blood glucose level (Tables 2-3, rats, STZ + compound 20 µg/kg, Day 4): 98 mg/dL; blood glucose level (Tables 2-3, rats, STZ + compound 20 µg/kg, Day 7): 461 mg/dL; blood glucose level (Tables 2-3, rats, STZ + compound 20 µg/kg, Day 11): 502 mg/dL; blood glucose level (Tables 2-3, rats, STZ + compound 20 µg/kg, Day 15): 266 mg/dL; blood glucose level (Tables 2-3, rats, STZ + compound 20 µg/kg, Day 18): 263 mg/dL; blood glucose level (Tables 2-3, rats, STZ + compound 20 µg/kg, Day 21): 382 mg/dL; blood glucose level (Tables 2-3, rats, STZ + compound 20 µg/kg, Day 25): 345 mg/dL; blood glucose level (Tables 2-3, rats, STZ + compound 20 µg/kg, Day 28): 496 mg/dL; blood glucose level (Tables 2-3, rats, STZ + compound 20 µg/kg, Day 32): 468 mg/dL; blood glucose level (Tables 2-3, rats, STZ + compound 20 µg/kg, Day 35): 485 mg/dL; blood glucose level (Tables 2-3, rats, STZ + compound 20 µg/kg, Day 39): 477 mg/dL; blood glucose level (Tables 2-3, rats, STZ + compound 20 µg/kg, Day 42): 457 mg/dL; blood glucose level (Tables 2-3, rats, STZ + compound 20 µg/kg, Day 46): 487 mg/dL; blood glucose level (Tables 2-3, rats, STZ + compound 20 µg/kg, Day 54): 389 mg/dL; blood glucose level (Tables 2-3, rats, STZ + compound 20 µg/kg, Day 61): 452 mg/dL; blood glucose level (Tables 2-3, rats, STZ + compound 40 µg/kg, Day 1): 105 mg/dL; blood glucose level (Tables 2-3, rats, STZ + compound 40 µg/kg, Day 4): 99 mg/dL; blood glucose level (Tables 2-3, rats, STZ + compound 40 µg/kg, Day 7): 548 mg/dL; blood glucose level (Tables 2-3, rats, STZ + compound 40 µg/kg, Day 11): 568 mg/dL; blood glucose level (Tables 2-3, rats, STZ + compound 40 µg/kg, Day 15): 327 mg/dL; blood glucose level (Tables 2-3, rats, STZ + compound 40 µg/kg, Day 18): 405 mg/dL; blood glucose level (Tables 2-3, rats, STZ + compound 40 µg/kg, Day 21): 472 mg/dL; blood glucose level (Tables 2-3, rats, STZ + compound 40 µg/kg, Day 25): 455 mg/dL; blood glucose level (Tables 2-3, rats, STZ + compound 40 µg/kg, Day 28): 514 mg/dL; blood glucose level (Tables 2-3, rats, STZ + compound 40 µg/kg, Day 32): 543 mg/dL; blood glucose level (Tables 2-3, rats, STZ + compound 40 µg/kg, Day 35): 507 mg/dL; blood glucose level (Tables 2-3, rats, STZ + compound 40 µg/kg, Day 39): 589 mg/dL; blood glucose level (Tables 2-3, rats, STZ + compound 40 µg/kg, Day 42): 592 mg/dL; blood glucose level (Tables 2-3, rats, STZ + compound 40 µg/kg, Day 46): 609 mg/dL; blood glucose level (Tables 2-3, rats, STZ + compound 40 µg/kg, Day 54): 531 mg/dL; blood glucose level (Tables 2-3, rats, STZ + compound 40 µg/kg, Day 61): 413 mg/dL

— US20080249028A1, “Thyrotropin-Releasing Hormone Analogs and Method of Use” (Roger Williams Hospital, priority 2005, published 2008)
